What was measured:
powdery mildew [1] = experiment: Test Example 1: control test of wheat powdery mildew, field, wheat variety Haruyutaka; assay type: in vivo, Blumeria graminis; conditions: for Degree of Disease Occurrence / Disease Leaf Rate (%): flag leaves, 79 days after seeding
Method: Seed of wheat (variety: Haruyutaka) sterilized in advance with commercial Benlate T wettable powder 20 (“Benlate” is a registered trademark) was used. In Example 1, seed having a mass of 1 kg was mixed into 100 ml of suspension water containing 5 g of dichlobentiazox, air-dried, and then, stripe-sown in a field with a furrow width of 30 cm and a ratio of 163 kg/ha (417 seeds/m^2). In contrast, in Comparative Example 1, seed which had not treated with dichlobentiazox was sown in a field in the same manner, and a spray solution corresponding to that obtained by suspending 500 g of dichlobentiazox in 200 liters of water per 1 ha was sprayed on foliage of wheat three times, during an ear emergence period (63 days after seeding), a flowering period (70 days after seeding), and a flowering end period (77 days after seeding). Similarly, in place of 500 g of dichlobentiazox in Comparative Example 1, 250 g of azoxystrobin (commercial Amistar 20 flowable was used. “Amistar” is a registered trademark) was used in Comparative Example 2, and 125 g of propiconazole (commercial Tilt emulsifiable concentrate 25 was used, “Tilt” is a registered trademark) was used in Comparative Example 3. The presence or absence of disease occurrence and a lesion area ratio of powdery mildew in flag leaves of 30 stems were investigated 79 days after seeding according to the criteria in Table 1, and a disease leaf rate and the degree of disease occurrence were calculated by the following calculation formula (1).
(§1) Degree of Disease Occurrence=Σ(Index×Number of Leaves of Index)/(4×Number of Investigated Leaves)×100 (1)

powdery mildew [2] = experiment: Test Example 3: control test of wheat powdery mildew, cup in greenhouse, inoculated; assay type: in vivo, Blumeria graminis; design: key to Degree of Disease Occurrence: Σ(index×no. leaves of index)/(4×no. investigated leaves)×100; conditions: for Degree of Disease Occurrence: 19 days after seeding
Method: as §1
Seed having a mass of 1 kg of wheat (variety: Norin No. 61) was mixed into 100 ml of suspension water containing 5 g or 0.5 g of dichlobentiazox or isotianil and air-dried, and then, 12 seeds were sown in a plastic cup having a diameter of 6 cm containing river sand and managed in a greenhouse. The number of emerged seeds was investigated nine days after seeding, and an emergence rate was calculated (Examples 6 to 9). In Comparative Examples 6 to 9, 20 ml of suspension water of an active ingredient, which had been adjusted to have a concentration shown in Table 4, was sprayed in a frame of 45 cm×45 cm in which a pot of wheat seedlings was placed (corresponding to 1000 L/ha) 14 days after seeding. On day 14 after seeding, conidiospores of powdery mildew were sifted over leaves of wheat seedlings and inoculated onto the leaves (after the sprayed liquid was dried in the case of Comparative Examples), a lesion area ratio of powdery mildew in a first leaf was investigated 19 days after seeding according to the criteria in Table 1, and the degree of disease occurrence was calculated by the above calculation formula (1).

septoria leaf blotch = experiment: Test Example 7: control test of septoria leaf blotch of wheat, field, wheat variety TRAPEZ; assay type: in vivo, Septoria tritici; conditions: for Degree of Disease Occurrence: flag leaves, 219 days after seeding
Method: as §1
Seed of wheat (variety: TRAPEZ) was used. On seed having a mass of 1 kg, 20 ml of suspension water containing 0.5 g or 5 g of dichlobentiazox or isotianil was sprayed. In Examples 16, 17, and 18, the seed treated with the chemical was stripe-sown with a ratio of 100 kg/ha. In contrast, in Comparative Example 17, seed which had not treated with dichlobentiazox or isotianil was sown in a field in the same manner, and a spray solution corresponding to that obtained by suspending 750 g of chlomthalonil (commercial FUNGISTOP was used, “FUNGISTOP” is a registered trademark) in 200 liters of water per 1 ha was sprayed on foliage of wheat 154 days and 184 days after seeding. The severity of disease occurrence of septoria leaf blotch in flag leaves of 25 stems was investigated 219 days after seeding according to the criteria in Table 1, and the degree of disease occurrence was calculated by the above calculation formula (1).

[3] = Foliage Treatment, spray 500 g/ha three times
[4] = Seed Treatment 5 g/Seed 1 kg (815 g/ha)

O=S1(=O)N=C(OCc2snc(Cl)c2Cl)c2ccccc21 [Compound (1), Dichlobentiazox]
disease occurrence of powdery mildew, seed treatment compared with foliage spraying of dichlobentiazox (Comparative Example 1) (powdery mildew [1]; Example 1, seed treatment): more suppressed | Degree of Disease Occurrence (powdery mildew [1]; [3]): 12.6 | Disease Leaf Rate (%) (powdery mildew [1]; [3]): 58.9% | Degree of Disease Occurrence (powdery mildew [1]; [4]): 0.6 | Disease Leaf Rate (%) (powdery mildew [1]; [4]): 4.4% | disease occurrence of powdery mildew, seed treatment compared with foliage spraying of azoxystrobin and propiconazole (Comparative Examples 2 and 3) (powdery mildew [1]; seed treatment): more suppressed | Degree of Disease Occurrence (powdery mildew [2]; Foliage Treatment, spray 50 ppm suspension water (50 g/ha) day 14, first leaf): 52.8 | Degree of Disease Occurrence (powdery mildew [2]; Foliage Treatment, spray 500 ppm suspension water (500 g/ha) day 14, first leaf): 44.4 | Degree of Disease Occurrence (powdery mildew [2]; Seed Treatment 0.5 g/Seed 1 kg (50 g/ha), inoculated day 14, first leaf): 10.1 | Degree of Disease Occurrence (powdery mildew [2]; Seed Treatment 5 g/Seed 1 kg (500 g/ha), inoculated day 14, first leaf): 9.0 | disease occurrence of powdery mildew, seed treatment compared with spraying on foliage during a growing period (powdery mildew [2]; seed treatment): suppressed lower | Degree of Disease Occurrence (septoria leaf blotch; Seed Treatment 0.5 g/Seed 1 kg (50 g/ha)): 2.8 | Degree of Disease Occurrence (septoria leaf blotch; Seed Treatment 5 g/Seed 1 kg (500 g/ha)): 1.9 | disease occurrence of septoria leaf blotch, seed treatment compared with foliage spraying of chlorothalonil (septoria leaf blotch; seed treatment): more suppressed
